What was measured:
[1] = test system: SARS-CoV-2; experiment: microbe, parasite or virus in culture; assay type: cell-based; details: Severe acute respiratory syndrome coronavirus 2, A549, read-out: IC50, anti-SARS-CoV-2 activity in A549 cells
[2] = biological target: T1, SARS-CoV-2 3CLpro (Severe acute respiratory syndrome coronavirus 2, UniProt P0DTD1); experiment: FRET-based continuous kinetic enzymatic assay of 3CLpro; assay type: biochemical; details: 100 nM 3CLpro, 100 μM fluorogenic substrate, 1 hour pre-incubation, 30° C.; read-out: IC50 against SARS-CoV-2 3CLpro
T1 construct: made in house; host or cells: E. coli

Row | Structure (SMILES) | IC50 [1] [nM] | IC50 [2] [nM]
1 | CNC(=O)[C@@H](Cc1cccc(F)c1)NC(=O)C1CN(C(=O)c2cncc3cccc(O)c23)CCN1Cc1ccc(Cl)cc1Cl (stereo partly shown) [Compound 1] | 848 | 165
2 | CNC(=O)c1cc(Br)cc([N+](=O)[O-])c1N1CC[C@@]2(CN(C(=O)c3cncc4cc(O)ccc34)C[C@@H]2c2ccccc2)C1 [Compound 8] | 38.8 | 49.5
